From article PMC12974487, “Inhibition of FicD-mediated AMPylation and deAMPylation by isoprenoid diphosphates” (Proceedings of the National Academy of Sciences of the …, 2026)
Entries after “also recorded” stand apart in the source; their conditions may differ.

Target: T1, VopS (Vibrio parahaemolyticus serotype O3:K6, UniProt Q87P32)
T1 construct: made in house
Assay: In vitro AMPylation of GST-CDC42 by VopS
Assay type: biochemical
Excerpt: Finally, we explored the inhibitory effects of GPP/FPP on other Fido proteins to see if these metabolites could serve as generic inhibitors of Fido domains. To test this specificity, we performed in vitro activity assays with GPP/FPP and two constitutively active Fido proteins from bacteria: VopS from Vibrio parahaemolyticus ([25]) and AvrB from Pseudomonas syringae ([30]). […]
visualization. Min-max scaled RFU values and the first derivatives are plotted as a function of temperature in Graphpad Prism 10.6.1. In Prism, the first derivative values are uniformly nudged by -1 to facilitate presenting RFU values and their first derivatives on the same graph.
To generate dose-response curves, ΔTm, was first calculated by subtracting the Tm of the ’no ligand’ control from the Tm of relevant ligand-containing reactions. ΔTm was then plotted as a function of ligand concentration. Dose-response curves were fit using GraphPad Prism 10.6.1 with the [Agonist] vs. Response – Variable Slope (four parameters) model. […]
Dialyzed proteins were then spun down at 21,000G for 15 minutes at 4C to remove trace insoluble material. The protein concentration was measured spectrophotometrically and then diluted to working concentration with 25mM HEPES pH 7.4/100mM KCl/10% glycerol. […] Integrated data was globally analyzed in SEDPHAT 15.b (12) using a model considering a single class of binding sites. […]

T1 sequence (Q87P32 31-387): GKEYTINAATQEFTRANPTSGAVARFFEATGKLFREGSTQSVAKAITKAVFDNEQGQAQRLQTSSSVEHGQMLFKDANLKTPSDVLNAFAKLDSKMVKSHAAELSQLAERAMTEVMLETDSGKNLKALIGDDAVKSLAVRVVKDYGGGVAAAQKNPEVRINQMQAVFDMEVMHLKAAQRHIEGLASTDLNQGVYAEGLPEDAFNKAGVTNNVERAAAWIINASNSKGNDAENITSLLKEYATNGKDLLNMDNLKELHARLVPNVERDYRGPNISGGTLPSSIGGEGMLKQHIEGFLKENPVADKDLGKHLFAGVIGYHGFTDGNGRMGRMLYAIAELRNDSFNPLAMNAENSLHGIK

SMILES | effect on AMPylation activity of VopS
CC(C)=CCC/C(C)=C/CC/C(C)=C/COP(=O)(O)OP(=O)(O)O [FPP, farnesyl-pyrophosphate] | Neither GPP nor FPP affected; also recorded: not inhibited
CC(C)=CCC/C(C)=C/COP(=O)(O)OP(=O)(O)O [GPP, geranyl-pyrophosphate] | Neither GPP nor FPP affected
